Earlier results as cited in patent publication US10744140B2, “Synergistic nutraceutical beverage formulations providing enhanced thermogenesis, mental clarity, and stamina while minimizing adrenaline and dopamine concentration perturbations associated with withdrawal” (Power Supplements, LLC., priority 2016, dated 2020).

Key:
rhesus monkey TAAR1 = target: T1, rhesus monkey TAAR1 (Macaca mulatta, UniProt Q8HZ64); details: HEK293 cells transfected with rhesus monkey TAAR1, CRE-Luc reporter
T1 construct: expressed in transfected cells; host or cells: HEK293 (transient, with CRE-Luc and pGL4.73 reporters)
T1 sequence (Q8HZ64 1-338): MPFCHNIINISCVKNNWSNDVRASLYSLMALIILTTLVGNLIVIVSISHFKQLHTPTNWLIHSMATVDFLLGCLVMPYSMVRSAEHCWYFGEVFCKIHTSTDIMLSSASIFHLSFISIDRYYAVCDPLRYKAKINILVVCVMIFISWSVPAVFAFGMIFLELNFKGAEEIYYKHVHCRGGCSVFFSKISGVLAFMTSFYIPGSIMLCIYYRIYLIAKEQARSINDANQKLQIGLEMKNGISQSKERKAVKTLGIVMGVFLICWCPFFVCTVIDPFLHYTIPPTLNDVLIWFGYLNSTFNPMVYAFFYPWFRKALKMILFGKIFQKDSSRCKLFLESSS

[1] = target: T2, rat trace amine receptor (rTAR1) (Rattus norvegicus, UniProt Q923Y9); details: 1 μM, HEK 293 cells
T2 construct: expressed in transfected cells; host or cells: HEK 293
T2 sequence (Q923Y9 whole entry): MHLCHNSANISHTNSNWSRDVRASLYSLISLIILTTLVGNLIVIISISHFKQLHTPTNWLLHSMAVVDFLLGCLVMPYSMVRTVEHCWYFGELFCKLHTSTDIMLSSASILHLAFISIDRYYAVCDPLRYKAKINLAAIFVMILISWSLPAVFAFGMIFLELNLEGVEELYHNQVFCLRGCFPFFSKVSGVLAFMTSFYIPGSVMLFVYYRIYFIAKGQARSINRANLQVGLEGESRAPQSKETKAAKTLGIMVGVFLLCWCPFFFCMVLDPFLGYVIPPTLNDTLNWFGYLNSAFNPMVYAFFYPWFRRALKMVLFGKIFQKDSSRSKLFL

young females = details: 50 mg, two months
primate brain = details: acute administration
humans = details: higher of two single doses (100 mg, 250 mg)
[2] = tested on: SERT (serotonin transporter); details: cells expressing TAAR1 and SERT
[3] = tested on: NET (norepinephrine transporter); details: cells expressing TAAR1 and NET
[4] = tested on: DAT (dopamine transporter); details: cells expressing TAAR1 and DAT

Structure (SMILES): NCC(O)c1ccc(O)cc1 (stereo not shown) [OCT, octopamine]
- TAAR1 activation (cAMP production) (rhesus monkey TAAR1): activates TAAR1

Structure (SMILES): NCCc1c[nH]c2ccccc12 [TRY, tryptamine]
- TAAR1 activation (cAMP production) (rhesus monkey TAAR1): activates TAAR1

Structure (SMILES): CN(C)CCc1ccc(O)cc1 [hordenine, N,N-dimethyltyramine]
- potency in stimulating cAMP production through the rTAR1 [1]: almost identical potency to that of the same concentration of β-phenethylamine
- heart rate (horses; 2 mg/kg intravenous (IV)): doubled
- increase of the rate of respiration (horses; 2 mg/kg intravenous (IV)): 250%
- respiratory distress (horses; 2 mg/kg intravenous (IV)): substantial respiratory distress
- time until all effects disappeared (horses; 2 mg/kg intravenous (IV)): ≤ 30 min
- effects after oral dosing (horses; same dose (2 mg/kg) given orally): did not produce any of the effects seen after parenteral administration
- blood pressure (dogs and rats): increased systolic and diastolic blood pressure
- effect on the heart (strength of contraction) (dogs and rats): positive inotropic effect on the heart
- movements of the gut (dogs and rats): inhibited
- peripheral blood flow (dogs and rats): increased the volume of peripheral blood flow

Structure (SMILES): Cc1ncc(C[n+]2csc(CCO)c2C)c(N)n1 [thiamine]
- attention (decision times in choice reaction time tasks) (young females): improved attention
- mood (Profile of Mood States) (young females): improved mood

Structure (SMILES): NCCc1ccc(O)cc1 [tyramine]
- potency in stimulating cAMP production through the rTAR1 [1]: slightly higher than that of hordenine
- TAAR1 activation (cAMP production) (rhesus monkey TAAR1): activates TAAR1

Structure (SMILES): Cc1ncc(CO)c(CO)c1O [vitamin B6, pyridoxine]
- serotonin synthesis in the brain (primate brain): increased serotonin synthesis
- dream salience (humans): increase in dream salience

Structure (SMILES): NCCc1ccccc1 [β-PEA, 2-phenylethylamine]
- uptake of serotonin by its transporter [2]: reduces the uptake of the monoamines
- TAAR1 activation (cAMP production) (rhesus monkey TAAR1): activates TAAR1
- uptake of norepinephrine by its transporter [3]: reduces the uptake of the monoamines
- uptake of dopamine by its transporter [4]: reduces the uptake of the monoamines
